Measured values taken from ChEMBL document CHEMBL1151193, “Ancistrotanzanine C and related 5,1'- and 7,3'-coupled naphthylisoquinoline alkaloids from Ancistrocladus tanzaniensis” (J Nat Prod, 2004).
In brackets after ≈: the same amount, converted by molar mass.

Tests used:
[1] = test system: Trypanosoma brucei rhodesiense; assay: Antitrypanosomal activity against Trypanosoma brucei rhodesiense; format: functional, organism-based
L6 = assay: Cytotoxicity against Leishmania donovani infected rat L6 cells; format: cell-based
[2] = Cytotoxicity against rat L6 cells; format: cell-based; conditions: read-out: MIC
Plasmodium falciparum [3] = assay: Antiplasmodial activity against chloroquine-sensitive Plasmodium falciparum 3D7; format: functional, organism-based
Plasmodium falciparum [4] = assay: Antiplasmodial activity against chloroquine-resistant Plasmodium falciparum K1; format: functional, organism-based
Trypanosoma cruzi = assay: Antitrypanosomal activity against Trypanosoma cruzi; format: functional, organism-based
Leishmania donovani = assay: Antileishmanial activity against Leishmania donovani; format: functional, organism-based

Compound	IC50 [1] [µg/mL]	Activity (L6)	MCC [2] [µg/mL]	IC50 (Plasmodium falciparum [3]) [µg/mL]	IC50 (Plasmodium falciparum [4]) [µg/mL]	IC50 (Trypanosoma cruzi) [µg/mL]	IC50 (Leishmania donovani) [µg/mL]
Nc1nc(N)nc(Nc2ccc([As]3SCC(CO)S3)cc2)n1 (configuration not stated) [MELARSOPROL]	0.0031						
COc1c(-c2c(C)cc3cccc(OC)c3c2O)c(O)cc2c1[C@@H](C)N(C)[C@@H](C)C2 [ANCISTROTANZANINE C]	1.3 (≈ 3.19 µM)	Toxic	40.7	4.2 (≈ 10.3 µM)	0.1 (≈ 0.245 µM)	14 (≈ 34.4 µM)	
O=C(Cn1ccnc1[N+](=O)[O-])NCc1ccccc1 [BENZNIDAZOLE]						0.29 (≈ 1.11 µM)	
COc1cc2c(c(OC)c1-c1c(C)cc3cccc(OC)c3c1O)C(C)=N[C@@H](C)C2 [ANCISTROCLADIDINE]	2 (≈ 4.93 µM)		28.3	1.9 (≈ 4.69 µM)	0.3 (≈ 0.74 µM)	23.4 (≈ 57.7 µM)	2.9 (≈ 7.15 µM)
COc1cc(OC)c(-c2c(C)cc(OC)c3c(OC)cccc23)c2c1C(C)=N[C@@H](C)C2	5.2 (≈ 12.4 µM)		> 90	5.4 (≈ 12.9 µM)	2.2 (≈ 5.24 µM)	60.5 (≈ 144 µM)	30 (≈ 71.5 µM)
COc1cc(OC)c2c(c1-c1c(C)cc(OC)c3c(OC)cccc13)C[C@H](C)N(C)[C@H]2C [O,N-Dimethylancistrocladine]	5.4 (≈ 12.4 µM)	Toxic	42.9	34.1 (≈ 78.3 µM)	3.6 (≈ 8.27 µM)	65.3 (≈ 150 µM)	
COc1cc2c(c(OC)c1-c1c(C)cc3cccc(OC)c3c1O)[C@@H](C)N(C)[C@@H](C)C2 [ANCISTROTECTORINE]	4.3 (≈ 10.2 µM)	Toxic	19.9	9.1 (≈ 21.6 µM)	0.7 (≈ 1.66 µM)	4.3 (≈ 10.2 µM)	
